Experimental data taken from US10947242B2, “[1,2,4]triazolo[1,5and#8208;A]pyrimidine compounds as PDE2 inhibitors” (Janssen Pharmaceutica NV, priority 2016, dated 2021).
Structures can show the parent of a compound that is named as a salt. Where two headings read alike, the source gives them in different places.

Tests used:
Type in all cases: biochemical
[1] = molecular target: T1, Human recombinant PDE3A (hPDE3A) (Homo sapiens, UniProt Q14432); assay: In vitro assay PDE3A (SPA, 3H-cAMP hydrolysis); conditions: for IC50: hPDE3B pIC50, read-out: pIC50 (converted); for Emax: read-out: hPDE3B Emax, read-out: Emax;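 on all read-outs here: the method names PDE3A and the table heading PDE3B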
T1 construct: purchased Scottish Biomedical; host or cells: Sf9 insect cells
Protocol: Human recombinant PDE3A (hPDE3A) was supplied as a partially purified insect cell lysate by Scottish Biomedical, it was cloned from human brain and expressed in Sf9 cells. Tested compounds were dissolved and diluted in 100% DMSO to a concentration 100 fold of the final concentration in the assay. Compound dilutions (0.4 μl) were added in 384 well plates to 20 μl of incubation buffer (50 mM Tris pH 7.8, 8.3 mM MgCl2, 1.7 mM EGTA). 10 μl of hPDE3A enzyme in incubation buffer was added and the reaction was started by addition of 10 μl substrate to a final concentration of 0.4 μM cAMP and 2.4 μCi/ml [^3H]-cAMP. The reaction was incubated for 60 min at room temperature. […] After sedimentation of the beads during 30 min the radioactivity was measured in a Perkin Elmer Topcount scintillation counter and results were expressed as cpm. For blanc values the enzyme was omitted from the reaction and replaced by incubation buffer. Control values were obtained by addition of a final concentration of 1% DMSO instead of compound.

[2] = molecular target: T2, Human recombinant PDE2A (hPDE2A) (Homo sapiens, UniProt O00408); assay: In vitro assay PDE2A (SPA, 3H-cGMP hydrolysis); conditions: for Emax: read-out: hPDE2A Emax
T2 construct: His tag (inferred from metal chelate purification); made in house; host or cells: Sf9 insect cells (baculovirus)

[3] = molecular target: T3, Human recombinant PDE10A (hPDE10A) (Homo sapiens, UniProt Q9Y233); assay: In vitro assay PDE10A, human clone (SPA, 3H-cAMP hydrolysis)
T3 construct: His tag (inferred from metal chelate purification); made in house; host or cells: Sf9 insect cells (baculovirus)
Protocol: Rat recombinant PDE10A (rPDE10A2) was expressed in Sf9 cells using a recombinant rPDE10A baculovirus construct. […] Tested compounds were dissolved and diluted in 100% DMSO to a concentration 100 fold of the final concentration in the assay. Human recombinant PDE10A ([…]) was expressed in Sf9 cells using a recombinant hPDE10A baculovirus that was made and amplified in house. […] Compound dilutions (0.4 μl) were added in 384 well plates to 20 μl of incubation buffer (50 mM Tris pH 7.8, 8.3 mM MgCl2, 1.7 mM EGTA). 10 μl of rPDE10A or hPDE10A enzyme in incubation buffer was added and the reaction was started by addition of 10 μl substrate to a final concentration of 60 nM cAMP and 0.008 μCi ^3H-cAMP. The reaction was incubated for 60 minutes at room temperature. […] After sedimentation of the beads during 30 minutes the radioactivity was measured in a Perkin Elmer Topcount scintillation counter and results were expressed as cpm. For blanc values the enzyme was omitted from the reaction and replaced by incubation buffer. Control values were obtained by addition of a final concentration of 1% DMSO instead of compound.

[4] = human recombinant PDE2A, 10 μM cGMP substrate, read-out: hPDE2A pIC50 (converted)
[5] = read-out: hPDE2A pIC50 (converted)
[6] = human clone (h), default, read-out: hPDE10A2 Emax
[7] = human clone (h), default, read-out: hPDE10A2 pIC50 (converted)
[8] = hPDE2A pIC50, human recombinant PDE2A, 10 μM cGMP substrate
[9] = human recombinant PDE2A, 10 μM cGMP substrate

T3 sequence (Q9Y233 267-1055): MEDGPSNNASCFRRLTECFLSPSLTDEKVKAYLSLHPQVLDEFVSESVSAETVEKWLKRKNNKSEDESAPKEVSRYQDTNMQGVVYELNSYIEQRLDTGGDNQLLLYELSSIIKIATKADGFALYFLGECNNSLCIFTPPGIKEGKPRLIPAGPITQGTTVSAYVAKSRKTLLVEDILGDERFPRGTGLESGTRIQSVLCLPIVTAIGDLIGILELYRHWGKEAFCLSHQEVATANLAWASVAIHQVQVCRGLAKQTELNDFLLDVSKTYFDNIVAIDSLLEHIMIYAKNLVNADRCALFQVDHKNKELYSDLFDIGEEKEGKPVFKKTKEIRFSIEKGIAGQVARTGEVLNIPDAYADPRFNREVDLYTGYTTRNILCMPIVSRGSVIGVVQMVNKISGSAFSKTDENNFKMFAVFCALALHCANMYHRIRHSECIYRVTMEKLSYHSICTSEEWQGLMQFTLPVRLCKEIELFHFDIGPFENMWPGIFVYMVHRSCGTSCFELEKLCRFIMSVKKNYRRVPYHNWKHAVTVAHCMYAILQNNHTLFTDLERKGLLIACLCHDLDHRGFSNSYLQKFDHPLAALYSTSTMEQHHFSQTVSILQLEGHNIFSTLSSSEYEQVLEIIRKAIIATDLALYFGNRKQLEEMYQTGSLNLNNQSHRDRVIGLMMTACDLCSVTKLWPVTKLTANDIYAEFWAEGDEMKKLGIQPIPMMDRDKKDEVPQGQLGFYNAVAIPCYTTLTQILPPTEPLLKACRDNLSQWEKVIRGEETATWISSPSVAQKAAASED
T2 sequence (O00408 whole entry): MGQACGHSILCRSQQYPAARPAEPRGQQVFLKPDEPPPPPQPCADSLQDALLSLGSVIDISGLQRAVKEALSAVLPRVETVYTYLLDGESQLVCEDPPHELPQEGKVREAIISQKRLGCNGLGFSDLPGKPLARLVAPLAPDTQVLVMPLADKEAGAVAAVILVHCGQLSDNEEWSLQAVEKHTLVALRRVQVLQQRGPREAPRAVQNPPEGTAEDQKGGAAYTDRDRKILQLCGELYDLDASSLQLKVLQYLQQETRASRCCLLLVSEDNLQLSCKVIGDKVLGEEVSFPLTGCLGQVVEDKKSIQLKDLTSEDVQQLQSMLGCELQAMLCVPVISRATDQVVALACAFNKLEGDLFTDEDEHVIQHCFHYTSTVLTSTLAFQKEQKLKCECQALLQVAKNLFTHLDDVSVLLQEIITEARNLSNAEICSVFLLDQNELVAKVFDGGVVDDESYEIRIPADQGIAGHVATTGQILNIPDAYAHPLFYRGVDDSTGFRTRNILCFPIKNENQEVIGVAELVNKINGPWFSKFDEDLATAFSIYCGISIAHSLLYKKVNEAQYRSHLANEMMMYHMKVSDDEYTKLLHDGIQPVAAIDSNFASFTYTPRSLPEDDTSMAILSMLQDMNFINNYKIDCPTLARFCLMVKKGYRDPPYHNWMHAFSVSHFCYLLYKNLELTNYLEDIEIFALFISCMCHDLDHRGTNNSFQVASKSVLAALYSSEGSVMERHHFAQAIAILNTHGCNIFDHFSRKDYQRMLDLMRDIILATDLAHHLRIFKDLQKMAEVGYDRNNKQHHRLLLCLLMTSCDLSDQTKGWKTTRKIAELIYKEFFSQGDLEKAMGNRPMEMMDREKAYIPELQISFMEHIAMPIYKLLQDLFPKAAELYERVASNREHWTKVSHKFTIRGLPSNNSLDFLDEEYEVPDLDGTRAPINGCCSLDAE
T1 sequence (Q14432 whole entry): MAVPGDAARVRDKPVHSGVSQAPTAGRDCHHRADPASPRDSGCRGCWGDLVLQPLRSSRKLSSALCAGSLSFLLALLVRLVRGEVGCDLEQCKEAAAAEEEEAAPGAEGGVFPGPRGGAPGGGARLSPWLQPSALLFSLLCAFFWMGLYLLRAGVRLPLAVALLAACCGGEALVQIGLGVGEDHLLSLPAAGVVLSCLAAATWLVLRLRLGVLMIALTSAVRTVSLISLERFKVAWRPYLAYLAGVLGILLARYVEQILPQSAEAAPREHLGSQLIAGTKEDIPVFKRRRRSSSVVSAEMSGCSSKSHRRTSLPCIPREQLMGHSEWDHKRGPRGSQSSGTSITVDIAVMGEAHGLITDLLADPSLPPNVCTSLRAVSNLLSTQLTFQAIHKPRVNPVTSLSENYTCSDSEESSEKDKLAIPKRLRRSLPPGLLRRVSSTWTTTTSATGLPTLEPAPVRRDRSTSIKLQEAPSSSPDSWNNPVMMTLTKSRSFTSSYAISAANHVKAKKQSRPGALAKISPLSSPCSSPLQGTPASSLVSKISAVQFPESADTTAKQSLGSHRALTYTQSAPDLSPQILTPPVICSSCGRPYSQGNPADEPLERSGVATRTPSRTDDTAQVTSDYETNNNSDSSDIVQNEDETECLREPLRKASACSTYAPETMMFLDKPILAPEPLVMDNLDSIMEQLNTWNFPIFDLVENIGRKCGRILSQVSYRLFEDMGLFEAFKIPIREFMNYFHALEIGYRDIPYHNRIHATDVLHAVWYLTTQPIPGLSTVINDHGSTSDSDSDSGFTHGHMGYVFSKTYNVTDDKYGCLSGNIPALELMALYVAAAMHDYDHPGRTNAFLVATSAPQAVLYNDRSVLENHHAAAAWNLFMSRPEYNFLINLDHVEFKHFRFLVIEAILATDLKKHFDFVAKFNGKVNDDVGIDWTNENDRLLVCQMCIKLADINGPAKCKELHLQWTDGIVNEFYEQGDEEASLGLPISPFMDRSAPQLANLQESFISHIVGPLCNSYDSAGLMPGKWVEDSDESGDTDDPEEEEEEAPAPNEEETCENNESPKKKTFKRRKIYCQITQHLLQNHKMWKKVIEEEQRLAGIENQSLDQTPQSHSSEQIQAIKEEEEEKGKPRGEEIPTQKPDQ

Row | SMILES | IC50 [1] [nM] | Emax [1] [%] | IC50 [2, 4] [nM] | Emax ([2]; human recombinant PDE2A) [%] | Emax [2] [%] | IC50 [2, 5] [nM] | Emax [3, 6] [%] | IC50 [3, 7] [nM] | Emax ([3]; human clone by default (no (r) mark), read-out: hPDE10A2 or rPDE10A2 Emax) [%] | IC50 ([3]; human clone by default (no (r) mark), read-out: hPDE10A2 or rPDE10A2 pIC50 (converted)) [nM] | IC50 [2, 8] [nM] | hPDE3B Emax [1] | hPDE2A Emax [2] | hPDE2A pIC50 [2] | hPDE2A Emax ([2]; human recombinant PDE2A) | hPDE2A pIC50 [2, 9] | hPDE10A2 Emax ([3]; human clone (h), default) | hPDE10A2 pIC50 ([3]; human clone (h), default) | IC50 ([2]; hPDE2A pIC50) [nM]
1 | CCCC[C@@H]1CCN(C(=O)c2cc(C)nc(C)c2)C[C@H]1c1cc(C(F)F)nc2ncnn12 (mixture of isomers) [Compound 44] | > 10000 | 39 | 9.55 | 100 | 100 | 9.55 | 79 | 2570 | – | – | – | – | – | – | – | – | – | – | –
2 | CCCC[C@H]1CCN(C(=O)c2cc(C)nc(C)c2)C[C@H]1c1cc(C(F)F)nc2ncnn12 (mixture of isomers) [Compound 219] | > 10000 | 18 | 138 | 100 | 100 | 138 | 45 | 9120 | 45 | 9120 | – | – | – | – | – | – | – | – | –
3 | CCCC[C@@H]1CCN(C(=O)c2cc(C)nc(C)c2)C[C@H]1c1cc(C(F)F)nc2ncnn12 (single isomer, unassigned) [Compound 45] | > 10000 | 1 | > 10000 | 37 | 37 | > 10000 | 24 | > 10000 | – | – | – | – | – | – | – | – | – | – | –
4 | O=C(c1ccc2occc2c1)N1CCC[C@](F)(c2cc(C(F)F)nc3ncnn23)C1 (single isomer, unassigned) [Compound 138] | 4900 | 64 | – | – | 93 | 28.2 | 24 | > 10000 | – | – | – | – | – | – | – | – | – | – | –
5 | C[C@]1(c2cc(C(F)F)nc3ncnn23)CCCN(C(=O)c2ccc3c(ccn3CCF)c2)C1 (single isomer, unassigned) [Compound 200] | > 10000 | 35 | 97.7 | 91 | 91 | 97.7 | 13 | > 10000 | – | – | – | – | – | – | – | – | – | – | –
6 | Cc1csc(C(=O)N2CCC[C@](C)(c3cc(C(F)F)nc4ncnn34)C2)c1 (single isomer, unassigned) [Compound 208] | > 10000 | 30 | 589 | 62 | 62 | 589 | 4 | > 10000 | – | – | – | – | – | – | – | – | – | – | –
7 | C[C@]1(c2cc(C(F)F)nc3ncnn23)CCCN(C(=O)c2ccc3nccn3c2)C1 (single isomer, unassigned) [Compound 212] | > 10000 | 7 | 575 | 61 | 61 | 575 | 8 | > 10000 | – | – | – | – | – | – | – | – | – | – | –
8 | Cc1cc(C(=O)N2CC[C@H](C)[C@@H](c3cc(C(F)F)nc4ncnn34)C2)cc(C)n1 [220 (•HCl)] | – | – | – | – | 54 | – | 27 | > 10000 | – | – | 977 | – | – | – | – | – | – | – | –
9 | Cc1cc(C(=O)N2CC[C@H](C)[C@@H](c3cc(C)nc4ncnn34)C2)cc(C)n1 [Compound 1b] | – | – | – | – | – | – | – | – | – | – | – | 13 | 88 | 5.96 | 88 | 5.96 | 50 | 5.01 | –
10 | Cc1cc([C@H]2CN(C(=O)c3ccc(C)c(C)n3)CC[C@@H]2C)n2ncnc2n1 [Compound 3b] | > 10000 | 14 | – | – | 64 | – | 19 | > 10000 | – | – | 5620 | – | – | – | – | – | – | – | 5620
11 | Cc1cc([C@@H]2CN(C(=O)c3ccc4occ(C)c4c3)CC[C@H]2C)n2ncnc2n1 [Compound 5] | 589 | 97 | – | – | 100 | – | 100 | 8.91 | – | – | 0.955 | – | – | – | – | – | – | – | 0.955
12 | Cc1cc([C@@H]2CN(C(=O)c3oc4ccccc4c3C)CC[C@H]2C)n2ncnc2n1 [Compound 7] | 75.9 | 100 | 0.794 | 100 | 100 | 0.794 | 101 | 17 | – | – | – | – | – | – | – | – | – | – | –
13 | Cc1cc([C@@H]2CN(C(=O)c3cc4ccccc4o3)CC[C@H]2C)n2ncnc2n1 [Compound 8] | 275 | 97 | 1.1 | 100 | 100 | 1.1 | 100 | 11.2 | – | – | – | – | – | – | – | – | – | – | –
14 | Cc1cc([C@@H]2CN(C(=O)c3ccc(C(C)(C)C)o3)CC[C@H]2C)n2ncnc2n1 [Compound 9] | 4270 | 74 | 13.8 | 101 | 101 | 13.8 | 100 | 74.1 | – | – | – | – | – | – | – | – | – | – | –
15 | Cc1cc([C@@H]2CN(C(=O)c3ccnc(Cl)c3F)CC[C@H]2C)n2ncnc2n1 [Compound 11] | 4790 | 69 | 22.9 | 100 | 100 | 22.9 | 95 | 372 | – | – | – | – | – | – | – | – | – | – | –
16 | Cc1cc([C@@H]2CN(C(=O)c3cc4c(nc3Cl)CCCC4)CC[C@H]2C)n2ncnc2n1 [Compound 12] | 1100 | 94 | 21.4 | 101 | 101 | 21.4 | 97 | 363 | – | – | – | – | – | – | – | – | – | – | –
17 | Cc1cc([C@@H]2CN(C(=O)c3ccn(C)c3)CC[C@H]2C)n2ncnc2n1 [Compound 14] | 4680 | 70 | 6.03 | 99 | 99 | 6.03 | 99 | 89.1 | – | – | – | – | – | – | – | – | – | – | –
18 | Cc1cc([C@@H]2CN(C(=O)c3ccnc(Cl)c3)CC[C@H]2C)n2ncnc2n1 [Compound 15] | 8130 | 54 | – | – | 100 | – | 97 | 72.4 | – | – | 3.24 | – | – | – | – | – | – | – | 3.24
19 | Cc1cc([C@@H]2CN(C(=O)c3cc(C)sc3C)CC[C@H]2C)n2ncnc2n1 [Compound 16] | 1660 | 88 | 6.17 | 100 | 100 | 6.17 | 98 | 63.1 | – | – | – | – | – | – | – | – | – | – | –
20 | Cc1cc([C@@H]2CN(C(=O)c3cnc(Cl)c(Cl)c3)CC[C@H]2C)n2ncnc2n1 [Compound 17] | 4270 | 74 | 4.9 | 99 | 99 | 4.9 | 97 | 81.3 | – | – | – | – | – | – | – | – | – | – | –
21 | Cc1cc([C@@H]2CN(C(=O)c3cccc4nc(C)oc34)CC[C@H]2C)n2ncnc2n1 [Compound 19] | 3090 | 79 | 10.5 | 101 | 101 | 10.5 | 96 | 129 | – | – | – | – | – | – | – | – | – | – | –
22 | Cc1cc([C@@H]2CN(C(=O)c3cnc4ccc(C(F)(F)F)cn34)CC[C@H]2C)n2ncnc2n1 [Compound 20] | 4270 | 74 | 12 | 101 | 101 | 12 | 98 | 132 | – | – | – | – | – | – | – | – | – | – | –
23 | Cc1cc([C@@H]2CN(C(=O)c3nc4ccccc4o3)CC[C@H]2C)n2ncnc2n1 [Compound 21] | 1510 | 89 | 4.57 | 99 | 99 | 4.57 | 97 | 132 | – | – | – | – | – | – | – | – | – | – | –
24 | Cc1cc(C(=O)N2CC[C@H](C)[C@@](F)(c3cc(C(F)F)nc4ncnn34)C2)cc(C2CC2)n1 [Compound 24a] | > 10000 | 31 | 2570 | 80 | 80 | 2570 | 23 | > 10000 | – | – | – | – | – | – | – | – | – | – | –
25 | Cc1cc(C(=O)N2CC[C@@H](C)[C@H](c3cc(C#N)nc4ncnn34)C2)cc(C)n1 [Compound 26a] | – | – | – | – | – | – | – | – | – | – | – | 0 | 21 | <5 | 21 | <5 | 7 | <5 | –
